Test results: patent publication US20250230193A1, “CYCLIC COMPOUND HAVING SELECTIVE KRAS INHIBITORY EFFECT ON HRAS AND NRAS” (CHUGAI SEIYAKU KABUSHIKI KAISHA, priority 2022, published 2025)

How the values were obtained:
[1] = target: GDP-bound HRAS wild-type protein (Homo sapiens, UniProt P01112); assay: Binding to HRAS by surface plasmon resonance (SPR), Single Cycle Kinetics; conditions: KD ratio HRAS/KRAS, class symbols
[2] = target: GDP-bound NRAS wild-type protein (Homo sapiens, UniProt P01111); assay: Binding to NRAS by surface plasmon resonance (SPR), Single Cycle Kinetics; conditions: KD ratio NRAS/KRAS, class symbols
GDP-bound NRAS wild-type protein, sequence (P01111 whole entry): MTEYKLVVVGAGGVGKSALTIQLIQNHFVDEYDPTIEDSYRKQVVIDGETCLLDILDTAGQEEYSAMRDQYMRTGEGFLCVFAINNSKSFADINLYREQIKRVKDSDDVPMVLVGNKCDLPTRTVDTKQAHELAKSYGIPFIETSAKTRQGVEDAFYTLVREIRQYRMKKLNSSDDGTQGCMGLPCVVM

GDP-bound HRAS wild-type protein, sequence (P01112 whole entry): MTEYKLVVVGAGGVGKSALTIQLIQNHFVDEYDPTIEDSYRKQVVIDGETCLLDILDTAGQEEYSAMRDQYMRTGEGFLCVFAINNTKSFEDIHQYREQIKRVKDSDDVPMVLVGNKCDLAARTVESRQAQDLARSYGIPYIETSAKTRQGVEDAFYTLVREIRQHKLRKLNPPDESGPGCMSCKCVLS

Row | SMILES | HRAS/KRAS (ratio of KD value with respect to GDP-bound HRAS wild-type protein to KD value with respect to KRAS) [1] | NRAS/KRAS (ratio of KD value with respect to GDP-bound NRAS wild-type protein to KD value with respect to KRAS) [2]
1 | CCC[C@H]1C(=O)N[C@@H]([C@@H](C)CC)C(=O)N(C)CC(=O)N(C)[C@H]2C/C=C\CCN(C2=O)[C@@H](Cc2ccc(C(F)(F)F)cc2)C(=O)N(C)CC(=O)N[C@@H](CCc2ccc3ccn(C)c3c2)C(=O)N2C[C@H](OCC)C[C@H]2C(=O)NC2(CC(C)(C)C2)C(=O)N(C)[C@@H](C2CCCC2)C(=O)N(C)[C@H](C(=O)N(C)C)CC(=O)N1C [PP2901] | A (a compound having 10 or more and less than 20 is denoted as A) | A (a compound having 10 or more and less than 20 is denoted as A)
2 | CCC[C@H]1C(=O)N[C@@H]([C@@H](C)CC)C(=O)N(C)CC(=O)N(C)[C@H]2C/C=C\CCN(C2=O)[C@@H](Cc2ccc(C)cc2)C(=O)N(C)CC(=O)N[C@@H](CCc2ccc3sc(C)c(C)c3c2)C(=O)N2C[C@H](OCC)C[C@H]2C(=O)NC2(CC(C)(C)C2)C(=O)N(C)[C@@H](C(CC)CC)C(=O)N(C)[C@H](C(=O)N(C)C)CC(=O)N1C [PP2902] | A (a compound having 10 or more and less than 20 is denoted as A) | AA (a compound having 20 or more is denoted as AA)
3 | CCC[C@H]1C(=O)N[C@@H]([C@@H](C)CC)C(=O)N(C)CC(=O)N(C)[C@H]2C/C=C\CCN(C2=O)[C@@H](Cc2ccc(C(F)(F)F)cc2)C(=O)N(C)CC(=O)N[C@@H](CCc2ccc3c(C)c(C)n(C)c3c2)C(=O)N2C[C@H](OCC)C[C@H]2C(=O)NC2(CC(C)(C)C2)C(=O)N(C)[C@@H](C(CC)CC)C(=O)N(C)[C@H](C(=O)N(C)C)CC(=O)N1C [PP2904] | A (a compound having 10 or more and less than 20 is denoted as A) | AA (a compound having 20 or more is denoted as AA)
4 | C#CC[C@H]1C(=O)N[C@@H]([C@@H](C)CC)C(=O)N(C)CC(=O)N(C)[C@H]2C/C=C\CCN(C2=O)[C@@H](Cc2ccc(C(F)(F)F)cc2)C(=O)N(C)CC(=O)N[C@@H](CCc2ccc(C(F)(F)F)c(OC)c2)C(=O)N2CCOC[C@H]2C(=O)NC2(CC(C)(C)C2)C(=O)N(C)[C@@H](C2CCCC2)C(=O)N(C)[C@H](C(=O)N(C)C)CC(=O)N1C [PP2905] | A (a compound having 10 or more and less than 20 is denoted as A) | AA (a compound having 20 or more is denoted as AA)
5 | CCC[C@H]1C(=O)N[C@@H]([C@@H](C)CC)C(=O)N(C)CC(=O)N(C)[C@H]2C/C=C\CCN(C2=O)[C@@H](Cc2ccc(C)cc2)C(=O)N(C)CC(=O)N[C@@H](CCc2ccc3c(C)c(C)n(C)c3c2)C(=O)N2C[C@H](OCC)C[C@H]2C(=O)NC2(CC(C)(C)C2)C(=O)N(C)[C@@H](C(CC)CC)C(=O)N(C)[C@H](C(=O)N(C)C)CC(=O)N1C [PP2906] | A (a compound having 10 or more and less than 20 is denoted as A) | A (a compound having 10 or more and less than 20 is denoted as A)
6 | CC[C@H](C)[C@@H]1NC(=O)[C@H](COC)N(C)C(=O)C[C@@H](C(=O)N(C)C)N(C)C(=O)[C@H](C2CCCC2)N(C)C(=O)C2(CC(C)(C)C2)NC(=O)[C@@H]2CCCCN2C(=O)[C@H](CCc2cc(F)c(C(F)(F)F)c(F)c2)NC(=O)CN(C)C(=O)[C@H](Cc2ccc(C(F)(F)F)cc2)N2CC/C=C\C[C@@H](C2=O)N(C)C(=O)CN(C)C1=O [PP2907] | A (a compound having 10 or more and less than 20 is denoted as A) | AA (a compound having 20 or more is denoted as AA)
7 | CCC[C@H]1C(=O)N[C@@H]([C@@H](C)CC)C(=O)N(C)CC(=O)N(C)[C@H]2C/C=C\CCN(C2=O)[C@@H](Cc2ccc(C(F)(F)F)cc2)C(=O)N(C)CC(=O)N[C@@H](CCc2ccc3c(C)cn(C)c3c2)C(=O)N2C[C@H](OCC)C[C@H]2C(=O)NC2(CC(C)(C)C2)C(=O)N(C)[C@@H](C(CC)CC)C(=O)N(C)[C@H](C(=O)N(C)C)CC(=O)N1C [PP2908] | A (a compound having 10 or more and less than 20 is denoted as A) | AA (a compound having 20 or more is denoted as AA)
8 | C#CC[C@H]1C(=O)N[C@@H]([C@@H](C)CC)C(=O)N(C)CC(=O)N(C)[C@H]2C/C=C\CCN(C2=O)[C@@H](Cc2ccc(C(F)(F)F)cc2)C(=O)N(C)CC(=O)N[C@@H](CCc2ccc(C(F)(F)F)c(OC)c2)C(=O)N2CC[C@H]2C(=O)NC2(CC(C)(C)C2)C(=O)N(C)[C@@H](C2CCCC2)C(=O)N(C)[C@H](C(=O)N(C)C)CC(=O)N1C [PP2909] | B (a compound having 3 or more and less than 10 is denoted as B) | B (a compound having 3 or more and less than 10 is denoted as B)
9 | CCC[C@H]1C(=O)N[C@@H]([C@@H](C)CC)C(=O)N(C)CC(=O)N(C)[C@H]2C/C=C\CCN(C2=O)[C@@H](Cc2ccc(C)cc2)C(=O)N(C)CC(=O)N[C@@H](CCc2ccc3c(C)cn(C)c3c2)C(=O)N2C[C@H](OCC)C[C@H]2C(=O)NC2(CC(C)(C)C2)C(=O)N(C)[C@@H](C(CC)CC)C(=O)N(C)[C@H](C(=O)N(C)C)CC(=O)N1C [PP2910] | A (a compound having 10 or more and less than 20 is denoted as A) | AA (a compound having 20 or more is denoted as AA)
10 | C#CC[C@H]1C(=O)N[C@@H]([C@@H](C)CC)C(=O)N(C)CC(=O)N(C)[C@H]2C/C=C\CCN(C2=O)[C@@H](Cc2ccc(C(F)(F)F)cc2)C(=O)N(C)CC(=O)N[C@@H](CCc2ccc(C(F)(F)F)c(OC)c2)C(=O)N2CC[C@H]2C(=O)NC2(CCC2)C(=O)N(C)[C@@H](C2CCCC2)C(=O)N(C)[C@H](C(=O)N(C)C)CC(=O)N1C [PP2911] | B (a compound having 3 or more and less than 10 is denoted as B) | A (a compound having 10 or more and less than 20 is denoted as A)
11 | CCC[C@H]1C(=O)N[C@@H]([C@@H](C)CC)C(=O)N(C)CC(=O)N(C)[C@H]2C/C=C\CCN(C2=O)[C@@H](Cc2ccc(C(F)(F)F)cc2)C(=O)N(C)CC(=O)N[C@@H](CCc2ccc3ccn(C)c3c2)C(=O)N2C[C@H](OCC)C[C@H]2C(=O)NC2(CC(C)(C)C2)C(=O)N(C)[C@@H](C(CC)CC)C(=O)N(C)[C@H](C(=O)N(C)C)CC(=O)N1C [PP2912] | A (a compound having 10 or more and less than 20 is denoted as A) | AA (a compound having 20 or more is denoted as AA)
12 | CCCN(C)C(=O)[C@@H]1CC(=O)N(C)[C@@H](CC)C(=O)N[C@@H]([C@@H](C)CC)C(=O)N(C)CC(=O)N(C)[C@H]2C/C=C\CCN(C2=O)[C@@H](Cc2ccc(C(F)(F)F)cc2)C(=O)N(C)CC(=O)N[C@@H](CCc2cc(F)c(C(F)(F)F)c(F)c2)C(=O)N2C[C@H](OCC3CC3)C[C@H]2C(=O)NC2(CCC2)C(=O)N(C)[C@@H](C2CCCC2)C(=O)N1C [PP2913] | A (a compound having 10 or more and less than 20 is denoted as A) | A (a compound having 10 or more and less than 20 is denoted as A)
13 | CCC[C@H]1C(=O)N[C@@H]([C@@H](C)CC)C(=O)N(C)CC(=O)N(C)[C@H]2C/C=C\CCN(C2=O)[C@@H](Cc2ccc(C)cc2)C(=O)N(C)CC(=O)N[C@@H](CCc2ccc3ccn(C)c3c2)C(=O)N2C[C@H](OCC)C[C@H]2C(=O)NC2(CC(C)(C)C2)C(=O)N(C)[C@@H](C(CC)CC)C(=O)N(C)[C@H](C(=O)N(C)C)CC(=O)N1C [PP2914] | A (a compound having 10 or more and less than 20 is denoted as A) | AA (a compound having 20 or more is denoted as AA)
14 | CCCN(C)C(=O)[C@@H]1CC(=O)N(C)[C@@H](CC)C(=O)N[C@@H]([C@@H](C)CC)C(=O)N(C)CC(=O)N(C)[C@H]2C/C=C\CCN(C2=O)[C@@H](Cc2ccc(C(F)(F)F)cc2)C(=O)N(C)CC(=O)N[C@@H](CCc2cc(F)c(C(F)(F)F)c(F)c2)C(=O)N2CC[C@H]2C(=O)NC2(CCC2)C(=O)N(C)[C@@H](C2CCCC2)C(=O)N1C [PP2915] | A (a compound having 10 or more and less than 20 is denoted as A) | A (a compound having 10 or more and less than 20 is denoted as A)
15 | CCC(CC)[C@H]1C(=O)N(C)[C@H](C(=O)N(C)C)CC(=O)N(C)[C@@H](COC)C(=O)N[C@@H]([C@@H](C)CC)C(=O)N(C)CC(=O)N(C)[C@H]2C/C=C\CCN(C2=O)[C@@H](Cc2ccc(C(F)(F)F)cc2)C(=O)N(C)CC(=O)N[C@@H](CCc2cc(F)c(C(F)(F)F)c(F)c2)C(=O)N2CCCC[C@H]2C(=O)NC2(CC(C)(C)C2)C(=O)N1C [PP2916] | A (a compound having 10 or more and less than 20 is denoted as A) | A (a compound having 10 or more and less than 20 is denoted as A)
16 | CCC(CC)[C@H]1C(=O)N(C)[C@H](C(=O)N(C)C)CC(=O)N(C)[C@@H](COC)C(=O)N[C@@H]([C@@H](C)CC)C(=O)N(C)CC(=O)N(C)[C@H]2C/C=C\CCN(C2=O)[C@@H](Cc2ccc(C(F)(F)F)cc2)C(=O)N(C)CC(=O)N[C@@H](CCc2cc(F)c(C(F)(F)F)c(F)c2)C(=O)N2CCOC[C@H]2C(=O)NC2(CC(C)(C)C2)C(=O)N1C [PP2917] | A (a compound having 10 or more and less than 20 is denoted as A) | AA (a compound having 20 or more is denoted as AA)
